Patent publication US20100249064A1, “METHODS AND COMPOSITIONS FOR TREATING DISEASES AND CONDITIONS INVOLVING HIGHER MOLECULAR WEIGHT HYALURONAN” (University of Chicago, priority 2007, published 2010)
“Also recorded” adds a separate entry of the source. Blank lines part the entries; values can stand above or below the molecule they belong to.

Assays:
ARDS = settings: cited from earlier work; for Outcome (clinical trials in ARDS): patients with ARDS
MARCKS and NHE1 = experiment: LPS-induced phosphorylation of MARCKS and NHE1 (immunoprecipitation/immunoblot); assay type: cell-based, human; settings: LPS 1 μg/ml, 4 hours, HMW-HA 100 nM or Y-27632 500 nM
[1] = test system: LPS-induced murine lung vascular permeability; experiment: LPS-induced murine lung vascular permeability, bronchioalveolar lavage (BAL) protein and cytokines; assay type: in vivo, mouse
Description: Animal Preparation and Treatment—Male C57BL/6J and CD44 knockout mice (8-10 weeks, Jackson Laboratories, Bar Harbor, Me.) were anesthetized with intraperitoneal ketamine (150 mg/kg) and acetylpromazine (15 mg/kg) according to approved protocols. LPS (2.5 mg/kg) or saline (control) were instilled intratracheally and four hours later, HGF (50 μg/kg) or saline control delivered intravenously through the internal jugular vein. The animals were allowed to recover for 24 h followed by bronchioalveolar lavage protein analysis and/or lung immunohistochemistry.
Determination of Bronchioalveolar Lavage Protein Concentration—Bronchioalveolar lavage (BAL) was performed by an intratracheal injection of 1 cc of Hank's balanced salt solution followed by gentle aspiration. The recovered fluid was processed for protein concentration (BCA Protein Assay Kit; Pierce Chemical Co., Rockford, Ill.) as described (Su et al., 2004).
Animals. Male C57BL/6J mice, CD44 knockout mice, Caveolin-1 knockout mice (8-10 weeks, Jackson Laboratories, Bar Harbor, Me.) were anesthetized with intraperitoneal ketamine (150 mg/kg) and acetylpromazine (15 mg/kg) according to approved protocols. LPS (2.5 mg/kg) or saline (control) were instilled intratracheally and four hours later, HMW-HA (1.5 mg/kg) or saline control delivered intravenously through the internal jugular vein. The animals were allowed to recover for 24 hours followed by bronchioalveolar lavage protein analysis and/or lung immunohistochemistry.
Determination of protein concentration. Total protein concentration. TGF-alpha concentration. TGF-beta1 concentration. Bronchioalveolar lavage (BAL) was performed by an intratracheal injection of 1 cc of Hank's balanced salt solution followed by gentle aspiration. The recovered fluid was processed for protein concentration (BCA Protein Assay Kit; Pierce Chemical Co., Rockford, Ill.) or used to determine TNF-α and TGF-β1 concentrations using quantitative sandwich enzyme immunoassays (R & D Systems, Minneapolis, Minn.).
Animal Preparation and Treatment. Male C57BL/6J, B6129N2, CD44^−/− or caveolin-1^−/− mice (8-10 weeks, Jackson Laboratories, Bar Harbor, Me.) were anesthetized with intraperitoneal ketamine (150 mg/kg) and acetylpromazine (15 mg/kg) before exposure of the right internal jugular vein via neck incision. LPS (2.5 mg/kg) or water (control) were instilled intratracheally. Four hours later, mice receive high MW HA (1.5 mg/kg) or water control through the internal jugular vein. The animals were allowed to recover for 24 hours after LPS before bronchioalveolar lavage protein and cytokine concentration and/or lung immunohistochemistry/immunoblot analysis (Peng et al., 2004).
Determination of Bronchoavleolar Lavage Protein and Cytokine Concentration. Bronchioalveolar lavage (BAL) was performed by an intratracheal injection of 1 cc of Hank's balanced salt solution followed by gentle aspiration. The recovered fluid was processed for protein concentration (BCA Protein Assay Kit; Pierce Chemical Co., Rockford, Ill.) (Peng et. al., 2004). Cytokines (IL-6, TNFalpha) were measured using a Quantikine sandwich ELISA kit (R & D Systems).

Rac1 = Rac1 activation assay, HGF; assay type: cell-based, human; settings: HGF 25 ng/ml
Description: Rac1 Activation Assay—Rac1 activity assays were performed as described (Ren et al., 1999) in human lung EC.

[2] = test system: c-Met, CD44v10, Tiam1, cortactin, dynamin 2 in CEM; experiment: HGF-induced recruitment of proteins to caveolin-enriched microdomains (CEM); assay type: cell-based, human
Description: Caveolin-enriched microdomain (CEM) isolation—Caveolin-enriched microdomain known as detergent-resistant membranes (DRM) or lipid rafts were isolated from HPMVEC (Singleton et al., 2006; Singleton et al., 2005). Triton X-100-insoluble materials were mixed with 0.6 ml of cold 60% Optiprep™ and then overlaid with 0.6 ml of 40%-20% Optiprep™. Gradients were centrifuged (35,000 rpm) in SW60 rotor for 12 h at 4° C. and different fractions were collected and analyzed.
Immunoprecipitation and Immunoblotting—Cellular materials from treated or untreated HPMVEC were incubated with IP buffer (50 mM HEPES (pH 7.5), 150 mM NaCl, 20 mM MgCl2, 1% Nonidet P-40 (NP-40), 0.4 mM Na3VO4, 40 mM NaF, 50 μM okadaic acid, 0.2 mM phenylmethylsulfonyl fluoride, 1:250 dilution of Calbiochem protease inhibitor mixture 3). Following immunoprecipitation with either anti-CD44 or anti-dynamin 2 IgG, the samples were subjected to SDS-PAGE in 4-15% polyacrylamide gels, transferred onto Immobilon™ membranes, and developed with specific primary and secondary antibodies. Enhanced chemiluminescence (Amersham Biosciences) was used to visualize immunoreactive bands. In some instances, standardized average grey values (S.A.G.V., processed from ImageQuant™ software (Amersham Biosciences)) were obtained for immunoreactive bands for quantification.
Determination of Complex Formation between CD44 and c-Met—Solubilized CEM proteins in IP buffer (see above) were immunoprecipitated with rat anti-CD44 antibody or anti-c-Met antibody followed by SDS-PAGE in 4-15% polyacrylamide gels and transfer onto Immobilon™ membranes (Millipore Corp., Bedford, Mass.). Nonspecific sites were blocked with 5% bovine serum albumin, and then the blots were incubated with either rat anti-CD44 antibody or mouse anti-c-Met antibody followed by incubation with horseradish peroxidase (HRP)-labeled goat anti-mouse or goat anti-rat IgG. Visualization of immunoreactive bands was achieved using enhanced chemiluminescence (Amersham Biosciences).

[3] = molecular target: Hyaluronic Acid Binding Protease 2 (HABP2), human (human, UniProt Q14520 24-560, limits assumed); experiment: anti-HABP2 immunoprecipitation of EC media, non-reducing SDS-PAGE, immunoblot with anti-HABP2 or anti-C1INH
purified HABP2 = molecular target: T1, purified HABP2 (Homo sapiens, UniProt Q14520); experiment: HABP2 protease assay (QuantiCleave, succinylated casein); assay type: biochemical; settings: 100 μM purified PABD, 500 nM HMW-HA or LMW-HA
T1 construct: host or cells: human pulmonary endothelial cells (EC); secreted into the medium, immunoprecipitated with anti-HABP2 antibody
Description: HABP2 protease assay. Protease activity is measured using the QuantiCleave™ Protease Assay Kit (Pierce). Briefly, the immunobeads are incubated with succinylated casein for one hour followed by development with TNBSA (2,4,6-trinitrobenzene sulfonic acid) and read at 450 nm.
HABP2 protein purification and protease activity determination. Media from HABP2 overexpression vector-transfected EC (Origene) was immunoprecipitated with anti-HABP2 antibody-conjugated Sepharose beads (Sigma). The immunobeads were then extensively washed in 50 mM Borate, pH=8.5 and eluted with 1M NaCl with 0.1% NP-40 and dialyzed against a 1,000 fold excess of 50 mM Borate, pH=8.5. Protein assays were performed to quantitate total protein. The purified protein was run on SDS-PAGE and either immunoblotted with anti-HABP2 antibody (Novus Biologicals) or stained with Imperial™ protein stain (Pierce) to check for purity. Protease activity was measured using the QuantiCleave™ Protease Assay Kit (Pierce). Briefly, the immunobeads were incubated with succinylated casein for one hour followed by development with TNBSA (2,4,6-trinitrobenzene sulfonic acid) and read at 450 nm.
Determination of the role of HMW-HA/HABP2/C1INH interactions in regulating angiogenesis in vitro. Human pulmonary EC (Cambrex), grown in EBM-2 complete medium (Cambrex) at 37° C. in a humidified atmosphere of 5% CO2, 95% air, with passages 6-10 used for experimentation will be treated with or without 100 nM HMW-HA and/or 100 nM VEGF in the presence or absence of HABP2 and/or C1INH overexpression vectors (Origene), exogenous purified recombinant HABP2 polyanion binding domain and/or C1INH (Novus Biologicals) and/or siRNA (scramble, HABP2 or C1INH). For HABP2 protease activity determination, media from HABP2 overexpressing EC (see above) was immunoprecipitated with anti-HABP2 antibody-conjugated Sepharose beads (Sigma). The immunobeads were then extensively washed in 50 mM Borate, pH=8.5 and protease activity was measured using the QuantiCleave™ Protease Assay Kit (Pierce). Briefly, the immunobeads were incubated with succinylated casein for one hour followed by development with TNBSA (2,4,6-trinitrobenzene sulfonic acid) and read at 450 nm.

T1 sequence (Q14520 24-560): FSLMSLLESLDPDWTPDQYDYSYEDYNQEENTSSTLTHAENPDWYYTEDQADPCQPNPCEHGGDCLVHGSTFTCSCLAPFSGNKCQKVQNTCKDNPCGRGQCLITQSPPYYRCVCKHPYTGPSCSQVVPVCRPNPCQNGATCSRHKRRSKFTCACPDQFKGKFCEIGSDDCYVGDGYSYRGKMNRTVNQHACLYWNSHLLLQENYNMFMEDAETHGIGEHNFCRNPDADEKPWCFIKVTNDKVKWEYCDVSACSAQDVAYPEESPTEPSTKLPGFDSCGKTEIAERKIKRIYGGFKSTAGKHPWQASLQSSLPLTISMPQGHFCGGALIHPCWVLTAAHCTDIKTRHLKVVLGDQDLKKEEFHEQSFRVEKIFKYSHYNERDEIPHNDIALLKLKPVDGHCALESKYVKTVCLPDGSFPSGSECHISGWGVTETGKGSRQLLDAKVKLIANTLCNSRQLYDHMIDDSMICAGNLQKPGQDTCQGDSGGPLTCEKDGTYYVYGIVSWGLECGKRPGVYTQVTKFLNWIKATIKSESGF
Hyaluronic Acid Binding Protease 2 (HABP2), human, sequence (Q14520 24-560 limits assumed): as the sequence (Q14520 24-560) above

Molecule: C[C@@H](O)CCCCn1c(=O)c2c(ncn2C)n(C)c1=O [Lisofylline]
- Outcome (clinical trials in ARDS) (ARDS): trials failed to show efficacy in increasing

Molecule: C[C@H]1C[C@@H]2[C@H]([C@@H](O)C[C@@]3(C)[C@H]2CC[C@]3(O)C(=O)CO)[C@@]2(C)C=CC(=O)C=C12 [Methyprednisolone]
- hospital mortality (ARDS; administered through the fibroproliferative stage of ARDS, 62% in placebo cohort): hospital mortality to 12% from 62% in placebo

Molecule: C[C@@H](N)[C@H]1CC[C@H](C(=O)Nc2ccncc2)CC1 [Y-27632, reference compound]
- LPS-induced phosphorylation of MARCKS and NHE1 (MARCKS and NHE1): inhibit LPS-induced phosphorylation of MARCKS and NHE1

Molecule: HGF: Recombinant human hepatocyte growth factor (HGF), Chemicon International
- protective effect on LPS-induced pulmonary hyper-permeability (BAL) in knockout mice ([1]; CD44 knockout (and, where stated, Caveolin-1 knockout) mice, same regimen): markedly attenuated in the CD44 knockout mouse; also recorded: significant difference (p<0.05) between the wildtype and CD44 knockout mouse HGF+LPS treatment
- LPS-induced pulmonary hyper-permeability (BAL protein concentration) ([1]; wildtype C57BL/6J mice, LPS 2.5 mg/kg intratracheally, HMW-HA 1.5 mg/kg or HGF 50 μg/kg intravenously 4 hours after LPS, BAL at 24 hours): pulmonary hyper-permeability was attenuated; also recorded: significant difference (p<0.05) between LPS treatment and HGF+LPS treatment
- Rac1 activation (Rac1): induced Rac1 activation
- recruitment of Tiam1, cortactin and dynamin 2 to CEM ([2]; HGF 25 ng/ml): increased recruitment to these caveolin-enriched plasma membrane microdomain structures
- recruitment of total CD44v10 into CD44s-containing CEM ([2]; HGF 25 ng/ml): ~70%
- recruitment of total c-Met into CD44s-containing CEM ([2]; HGF 25 ng/ml): ~55%
- association of c-Met with CD44v10 in CEM ([2]; HGF 25 ng/ml, 5, 15 or 30 min): induce an association that is time-dependent of c-Met with CD44v10

Molecule: Nitric Oxide [NO]
- adverse effects (ARDS; ARDS patients): causes methemoglobinemia, increased
- pulmonary artery pressure (ARDS; ARDS patients): NO reduces pulmonary artery pressure but
- Outcome (clinical trials in ARDS) (ARDS): several multicenter clinical trials have shown no

- binding result [3]: binds
B1: C1INH, human (other, UniProt P05155 23-500, looked up)
chain: NPNATSSSSQDPESLQDRGEGKVATTVISKMLFVEPILEVSSLPTTNSTTNSATKITANTTDEPTTQPTTEPTTQPTIQPTQPTTQLPTDSPTQPTTGSFCPGPVTLCSDLESHSTEAVLGDALVDFSLKLYHAFSAMKKVETNMAFSPFSIASLLTQVLLGAGENTKTNLESILSYPKDFTCVHQALKGFTTKGVTSVSQIFHSPDLAIRDTFVNASRTLYSSSPRVLSNNSDANLELINTWVAKNTNNKISRLLDSLPSDTRLVLLNAIYLSAKWKTTFDPKKTRMEPFHFKNSVIKVPMMNSKKYPVAHFIDQTLKAKVGQLQLSHNLSLVILVPQNLKHRLEDMEQALSPSVFKAIMEKLEMSKFQPTLLTLPRIKVTTSQDMLSIMEKLEFFDFSYDLNLCGLTEDPDLQVSAMQHQTVLELTETGVEAAAASAISVARTLLVFEVQQPFLFVLWDQQHKFPVFMGRVYDPRA
notes: also called C1NH; C1 NH

B2: recombinant peptide of the PABD of HABP2: recombinant HABP2 polyanion binding domain, amino acids 110-188 of SEQ ID NO:2 (SEQ ID NO:37) (protein, listed as Homo sapiens)
chain: KVQNTCKDNPCGRGQCLITQSPPYYRCVCKHPYTGPSCSQVVPVCRPNPCQNGATCSRHKRRSKFTCACPDQFKGKFCE
- blocking of HA effects on HABP2 protease activity (purified HABP2): The effects of LMW-HA, but not HMW-HA, were blocked
